According to PubChem BioAssay (NCI):
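GI50 marks 50% less growth. TGI: total growth inhibition.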

Assays:
Assay in all cases: NCI tumour cell line growth inhibition, 384-well format
[1] = tested on: 786-0 renal
[2] = tested on: A498 renal
[3] = tested on: A549 NSCLC
[4] = tested on: ACHN renal
[5] = tested on: BT-549 breast
[6] = tested on: CAKI-1 renal
[7] = tested on: CCRF-CEM leukemia
[8] = tested on: COLO 205 colon
[9] = tested on: DU-145 prostate
[10] = tested on: EKVX NSCLC
[11] = tested on: HCC-2998 colon
[12] = tested on: HCT-15 colon
[13] = tested on: HL-60(TB) leukemia
[14] = tested on: HOP-62 NSCLC
[15] = tested on: HOP-92 NSCLC
[16] = tested on: HS 578T breast
[17] = tested on: HT29 colon
[18] = tested on: IGROV1 ovarian
[19] = tested on: KM12 colon
[20] = tested on: M14 melanoma
[21] = tested on: MALME-3M melanoma
[22] = tested on: MCF7 breast
[23] = tested on: MDA-MB-231 breast
[24] = tested on: MDA-MB-435 melanoma
[25] = tested on: MDA-MB-468 breast
[26] = tested on: MOLT-4 leukemia
[27] = tested on: NCI-H226 lung
[28] = tested on: NCI-H23 lung
[29] = tested on: NCI-H322M lung
[30] = tested on: NCI-H460 NSCLC
[31] = tested on: NCI-H522 lung
[32] = tested on: NCI/ADR-RES ovarian
[33] = tested on: OVCAR-3 ovarian
[34] = tested on: OVCAR-4 ovarian
[35] = tested on: OVCAR-5 ovarian
[36] = tested on: OVCAR-8 ovarian
[37] = tested on: PC-3 prostate
[38] = tested on: RPMI-8226 leukemia
[39] = tested on: RXF 393 renal
[40] = tested on: SF-268 CNS
[41] = tested on: SF-295 CNS
[42] = tested on: SF-539 CNS
[43] = tested on: SK-MEL-2 melanoma
[44] = tested on: SK-MEL-28 melanoma
[45] = tested on: SK-MEL-5 melanoma
[46] = tested on: SK-OV-3 ovarian
[47] = tested on: SN12C renal
[48] = tested on: SNB-19 CNS
[49] = tested on: SNB-75 CNS
[50] = tested on: SR leukemia
[51] = tested on: SW-620 colon
[52] = tested on: T-47D breast
[53] = tested on: TK-10 renal
[54] = tested on: U251 glioblastoma
[55] = tested on: UACC-257 melanoma
[56] = tested on: UACC-62 melanoma

Structure (SMILES): O=c1ccn(C2OC(CO)C(O)C2F)c(=O)[nH]1 (configuration not stated)
- GI50 [1]: > 100 µM
- TGI [1]: > 100 µM
- GI50 [2]: > 100 µM
- TGI [2]: > 100 µM
- GI50 [3]: > 100 µM
- TGI [3]: > 100 µM
- GI50 [4]: > 100 µM
- TGI [4]: > 100 µM
- GI50 [5]: > 100 µM
- TGI [5]: > 100 µM
- GI50 [6]: > 100 µM
- TGI [6]: > 100 µM
- GI50 [7]: 37.3 µM
- TGI [7]: > 100 µM
- GI50 [8]: > 100 µM
- TGI [8]: > 100 µM
- GI50 [9]: > 100 µM
- TGI [9]: > 100 µM
- GI50 [10]: > 100 µM
- TGI [10]: > 100 µM
- GI50 [11]: > 100 µM
- TGI [11]: > 100 µM
- GI50 [12]: > 100 µM
- TGI [12]: > 100 µM
- GI50 [13]: > 100 µM
- TGI [13]: > 100 µM
- GI50 [14]: > 100 µM
- TGI [14]: > 100 µM
- GI50 [15]: > 100 µM
- TGI [15]: > 100 µM
- GI50 [16]: > 100 µM
- TGI [16]: > 100 µM
- GI50 [17]: > 100 µM
- TGI [17]: > 100 µM
- GI50 [18]: > 100 µM
- TGI [18]: > 100 µM
- GI50 [19]: > 100 µM
- TGI [19]: > 100 µM
- GI50 [20]: > 100 µM
- TGI [20]: > 100 µM
- GI50 [21]: > 100 µM
- TGI [21]: > 100 µM
- GI50 [22]: > 100 µM
- TGI [22]: > 100 µM
- GI50 [23]: > 100 µM
- TGI [23]: > 100 µM
- GI50 [24]: > 100 µM
- TGI [24]: > 100 µM
- GI50 [25]: > 100 µM
- TGI [25]: > 100 µM
- GI50 [26]: 53.1 µM
- TGI [26]: > 100 µM
- GI50 [27]: > 100 µM
- TGI [27]: > 100 µM
- GI50 [28]: > 100 µM
- TGI [28]: > 100 µM
- GI50 [29]: > 100 µM
- TGI [29]: > 100 µM
- GI50 [30]: > 100 µM
- TGI [30]: > 100 µM
- GI50 [31]: > 100 µM
- TGI [31]: > 100 µM
- GI50 [32]: > 100 µM
- TGI [32]: > 100 µM
- GI50 [33]: > 100 µM
- TGI [33]: > 100 µM
- GI50 [34]: > 100 µM
- TGI [34]: > 100 µM
- GI50 [35]: > 100 µM
- TGI [35]: > 100 µM
- GI50 [36]: > 100 µM
- TGI [36]: > 100 µM
- GI50 [37]: > 100 µM
- TGI [37]: > 100 µM
- GI50 [38]: > 100 µM
- TGI [38]: > 100 µM
- GI50 [39]: > 100 µM
- TGI [39]: > 100 µM
- GI50 [40]: > 100 µM
- TGI [40]: > 100 µM
- GI50 [41]: > 100 µM
- TGI [41]: > 100 µM
- GI50 [42]: > 100 µM
- TGI [42]: > 100 µM
- GI50 [43]: > 100 µM
- TGI [43]: > 100 µM
- GI50 [44]: > 100 µM
- TGI [44]: > 100 µM
- GI50 [45]: > 100 µM
- TGI [45]: > 100 µM
- GI50 [46]: > 100 µM
- TGI [46]: > 100 µM
- GI50 [47]: > 100 µM
- TGI [47]: > 100 µM
- GI50 [48]: > 100 µM
- TGI [48]: > 100 µM
- GI50 [49]: > 100 µM
- TGI [49]: > 100 µM
- GI50 [50]: > 100 µM
- TGI [50]: > 100 µM
- GI50 [51]: > 100 µM
- TGI [51]: > 100 µM
- GI50 [52]: > 100 µM
- TGI [52]: > 100 µM
- GI50 [53]: > 100 µM
- TGI [53]: > 100 µM
- GI50 [54]: > 100 µM
- TGI [54]: > 100 µM
- GI50 [55]: > 100 µM
- TGI [55]: > 100 µM
- GI50 [56]: > 100 µM
- TGI [56]: > 100 µM
